This note sets out measurements from US9662327B2 (AGIOS PHARMACEUTICALS, INC, priority 2011, dated 2017).

For one assay, the target named is IDH1 R132H (Homo sapiens (Human), UniProt O75874, R132H). In words: Assays for IDH1 R132H Inhibitors (NADPH/aKG, resazurin detection). The format is biochemical. Conditions: IDH1 R132H enzyme, Table 3; read-out: R132H IC50. The method, boiled down:
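Substrate mix held 8 uM NADPH plus 2 mM aKG; buffer was 20 mM Tris pH 7.5 with 150 mM NaCl, 10 mM MgCl2, 0.03% BSA. After 50 min room-temperature reaction, NADPH remaining was detected with 30 μM resazurin mix over 5 min.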

Another assay concerns HT1080 cells. Nature of the assay: Cellular assay for IDH1m inhibitors: inhibition of 2-HG production in HT1080 cells (LC-MS). It counts as cell-based. The method in brief: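 HT1080 or U87MG cells seeded at 5000 cells/well overnight, then compound added (final DMSO 0.2%) and incubated 48 hours at 37 C. 2-HG in the medium quantified by LC-MS; viability checked by CellTiter-Glo luminescence at 72 hours post compound.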

The subject of another assay is U87R132H (U87MG) cells. Nature of the assay: Cellular assay for IDH1m inhibitors: inhibition of 2-HG production in U87MG (U87R132H) cells (LC-MS). The format is cell-based. Conditions: 48 hours. As for the experimental part: Cells (e.g., HT1080 or U87MG) are grown in T125 flasks in DMEM containing 10% FBS, 1× penicillin/streptomycin and 500 ug/mL G418. They are harvested by trypsin and seeded into 96 well white bottom plates at a density of 5000 cell/well in 100 ul/well in DMEM with 10% FBS. No cells are plates in columns 1 and 12. Cells are incubated overnight at 37 C in 5% CO2. The next day compounds are made up at 2× concentration and 100 ul are added to each cell well. The final concentration of DMSO is 0.2% and the DMSO control wells are plated in row G. The plates are then placed in the incubator for 48 hours. At 48 hours, 100 ul of media is removed from each well and analyzed by LC-MS for 2-HG concentrations. The cell plate is placed back in the incubator for another 24 hours. At 72 hours post compound addition, 10 mL/plate of Promega Cell Titer Glo reagent is thawed and mixed. The cell plate is removed from the incubator and allowed to equilibrate to room temperature. Then 100 ul of reagent is added to each well of media. The cell plate is then placed on an orbital shaker for 10 minutes and then allowed to sit at room temperature for 20 minutes. The plate is then read for luminescence with an integration time of 500 ms.

Where [1] appears, read: Homo sapiens, HT-1080, 48 hours.

IDH1 R132H, sequence (O75874 whole entry R132H): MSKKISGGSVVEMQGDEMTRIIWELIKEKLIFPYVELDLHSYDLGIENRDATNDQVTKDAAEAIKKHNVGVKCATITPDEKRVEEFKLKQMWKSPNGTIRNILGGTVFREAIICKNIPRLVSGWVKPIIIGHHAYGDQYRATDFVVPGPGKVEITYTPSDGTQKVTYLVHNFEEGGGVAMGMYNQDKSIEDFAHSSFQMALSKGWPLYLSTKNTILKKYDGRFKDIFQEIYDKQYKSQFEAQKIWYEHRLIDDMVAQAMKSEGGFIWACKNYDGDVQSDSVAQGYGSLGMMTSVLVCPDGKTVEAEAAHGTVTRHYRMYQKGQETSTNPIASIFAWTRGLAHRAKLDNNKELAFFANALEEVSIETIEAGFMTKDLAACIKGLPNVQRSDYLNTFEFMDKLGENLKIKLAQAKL

As for `CC(O)CC(=O)N1CCN(c2nc(C3CC3)c3c(c2C#N)CC(C)(C)OC3)C[C@H]1C(C)C` (stereo partly drawn) [Compound 433, 8-cyclopropyl-6-((3R)-4-(3-hydroxybutanoyl)-3-isopropylpiperazin-1-yl)-3,3-dimethyl-3,4-dihydro-1H-pyrano[3,4-c]pyridine-5-carbonitrile], the IC50 (as a rule, the concentration at which inhibition is half-maximal) at IDH1 R132H is less than 500 nM; in the assay with HT1080 cells (setting [1]), 500 to 1000 nM; in the assay with U87R132H (U87MG) cells (Homo sapiens, U-87 MG) it was 500 to 1000 nM.
Turning to `CC(O)CC(=O)N1CCN(c2nc(C3CC3)c3c(c2C#N)CC(C)(C)OC3)C[C@H]1C1CC1` (stereo partly drawn) [Compound 442, 8-cyclopropyl-6-((3R)-3-cyclopropyl-4-(3-hydroxybutanoyl)piperazin-1-yl)-3,3-dimethyl-3,4-dihydro-1H-pyrano[3,4-c]pyridine-5-carbonitrile], the IC50 is less than 500 nM on IDH1 R132H; 500 to 1000 nM in the assay on HT1080 cells (setting [1]); 500 to 1000 nM in the assay with U87R132H (U87MG) cells (Homo sapiens, U-87 MG).
In the case of `CC(C)[C@@H]1CN(c2nc(C3CC3)c3c(c2C#N)CC(C)(C)OC3)CCN1C(=O)CC1CCO1` (stereo partly drawn) [Compound 473, 8-cyclopropyl-6-((3R)-3-isopropyl-4-(2-(oxetan-2-yl)acetyl)piperazin-1-yl)-3,3-dimethyl-3,4-dihydro-1H-pyrano[3,4-c]pyridine-5-carbonitrile], the IC50 was less than 500 nM at IDH1 R132H; less than 500 nM with HT1080 cells (setting [1]); 500 to 1000 nM with U87R132H (U87MG) cells (Homo sapiens, U-87 MG).
Regarding `[2H]C1([2H])CN(c2nc(C3CC3)c3c(c2C#N)CC(C)(C)OC3)C([2H])([2H])[C@@]([2H])(C([2H])(C([2H])([2H])[2H])C([2H])([2H])[2H])N1C(=O)CCOC` [Compound 438, (R)-8-cyclopropyl-3,3-dimethyl-6-(2,2,3,5,5-pentadeuterio-4-(3-methoxypropanoyl)-3-(perdeuteriopropan-2-yl)piperazin-1-yl)-3,4-dihydro-1H-pyrano[3,4-c]pyridine-5-carbonitrile], the IC50 at IDH1 R132H was less than 500 nM; in the assay on HT1080 cells (setting [1]), less than 500 nM; in the assay with U87R132H (U87MG) cells (Homo sapiens, U-87 MG), less than 500 nM.
In the case of `COCCC(=O)N1CCN(c2nc(C3CC3)c3c(c2C#N)CCN(S(C)(=O)=O)C3)C[C@H]1C1CC1` [Compound 479, (R)-1-cyclopropyl-3-(3-cyclopropyl-4-(3-methoxypropanoyl)piperazin-1-yl)-7-(methylsulfonyl)-5,6,7,8-tetrahydro-2,7-naphthyridine-4-carbonitrile], the IC50 on IDH1 R132H is less than 500 nM; in the assay on HT1080 cells (setting [1]), 500 to 1000 nM; in the assay with U87R132H (U87MG) cells (Homo sapiens, U-87 MG), less than 500 nM.
With `CC1(C)Cc2c(C#N)c(N3CCN(C(=O)C4CC4)C(C(F)F)C3)nc(C3CC3)c2CO1` (stereo not drawn) [Compound 463, 6-(4-(cyclopropanecarbonyl)-3-(difluoromethyl)piperazin-1-yl)-8-cyclopropyl-3,3-dimethyl-3,4-dihydro-1H-pyrano[3,4-c]pyridine-5-carbonitrile], the IC50 at IDH1 R132H was in the range of 500 to 1000 nM; in the assay with HT1080 cells (setting [1]), 1000 to 10000 nM; in the assay with U87R132H (U87MG) cells (Homo sapiens, U-87 MG) it was 1000 to 10000 nM.
Turning to `COC(=O)N1CCc2c(C#N)c(N3CCN(C(=O)C4CC4)[C@H](C4CC4)C3)nc(C3CC3)c2C1` [Compound 494, (R)-methyl 5-cyano-6-(4-(cyclopropanecarbonyl)-3-cyclopropylpiperazin-1-yl)-8-cyclopropyl-3,4-dihydro-2,7-naphthyridine-2(1H)-carboxylate], the IC50 on IDH1 R132H was 500 to 1000 nM; in the assay with HT1080 cells (setting [1]), less than 500 nM; with U87R132H (U87MG) cells (Homo sapiens, U-87 MG) it was less than 500 nM.
Turning to `CC(C)[C@@H]1CN(c2nc(C3CC3)c3c(c2C#N)CC(C)(C)OC3)CCN1C(=O)Cc1nnco1` [Compound 455, (R)-6-(4-(2-(1,3,4-oxadiazol-2-yl)acetyl)-3-isopropylpiperazin-1-yl)-8-cyclopropyl-3,3-dimethyl-3,4-dihydro-1H-pyrano[3,4-c]pyridine-5-carbonitrile], the IC50 at IDH1 R132H is 500 to 1000 nM; in the assay with HT1080 cells (setting [1]) it was less than 500 nM; in the assay with U87R132H (U87MG) cells (Homo sapiens, U-87 MG), less than 500 nM.
Turning to `CC1(C)Cc2c(C#N)c(N3CCN(C(=O)CCO)[C@H](C4CC4)C3)nc(C3CC3)c2CO1` [Compound 460, (R)-8-cyclopropyl-6-(3-cyclopropyl-4-(3-hydroxypropanoyl)piperazin-1-yl)-3,3-dimethyl-3,4-dihydro-1H-pyrano[3,4-c]pyridine-5-carbonitrile], the IC50 on IDH1 R132H is less than 500 nM; in the assay on HT1080 cells (setting [1]), less than 500 nM; with U87R132H (U87MG) cells (Homo sapiens, U-87 MG), less than 500 nM.
Turning to `COCCC(=O)N1CCN(c2nc(C3CC3)c3c(c2C#N)CC(C)(C)OC3)CC1CC(F)(F)F` (stereo not drawn) [Compound 469, 8-cyclopropyl-6-(4-(3-methoxypropanoyl)-3-(2,2,2-trifluoroethyl)piperazin-1-yl)-3,3-dimethyl-3,4-dihydro-1H-pyrano[3,4-c]pyridine-5-carbonitrile], the IC50 at IDH1 R132H was less than 500 nM; in the assay with HT1080 cells (setting [1]), 1000 to 10000 nM; in the assay on U87R132H (U87MG) cells (Homo sapiens, U-87 MG), 1000 to 10000 nM.
For `COC(=O)[C@@H]1C[C@H]1C(=O)N1CCN(c2nc(C3CC3)c3c(c2C#N)CC(C)(C)OC3)C[C@H]1C(C)C` [Compound 454], the IC50 at IDH1 R132H was less than 500 nM; in the assay with HT1080 cells (48 hours), 500 to 1000 nM; in the assay with U87R132H (U87MG) cells, 500 to 1000 nM.
On to `COC(=O)CC(=O)N1CCN(c2nc(C3CC3)c3c(c2C#N)CC(C)(C)OC3)C[C@H]1C1CC1` [Compound 440, (R)-methyl 3-(4-(5-cyano-8-cyclopropyl-3,3-dimethyl-3,4-dihydro-1H-pyrano[3,4-c]pyridin-6-yl)-2-cyclopropylpiperazin-1-yl)-3-oxopropanoate], for which the IC50 at IDH1 R132H is less than 500 nM; with HT1080 cells (setting [1]), less than 500 nM; with U87R132H (U87MG) cells (Homo sapiens, U-87 MG) it was less than 500 nM.
In the case of `CS(=O)(=O)N1CCc2c(C#N)c(N3CCN(C(=O)C4CC4)[C@H](C4CC4)C3)nc(C3CC3)c2C1` [Compound 481, (R)-3-(4-(cyclopropanecarbonyl)-3-cyclopropylpiperazin-1-yl)-1-cyclopropyl-7-(methylsulfonyl)-5,6,7,8-tetrahydro-2,7-naphthyridine-4-carbonitrile], the IC50 on IDH1 R132H was less than 500 nM; with HT1080 cells (setting [1]) it was 1000 to 10000 nM; in the assay with U87R132H (U87MG) cells (Homo sapiens, U-87 MG), 500 to 1000 nM.
As for `[2H]C([2H])([2H])C([2H])(C([2H])([2H])[2H])[C@@]1([2H])N(C(=O)CC(F)(F)F)C([2H])([2H])C([2H])([2H])N(c2nc(C3CC3)c3c(c2C#N)CC(C)(C)OC3)C1([2H])[2H]` [Compound 477, (R)-8-cyclopropyl-3,3-dimethyl-6-(2,2,3,5,5-pentadeuterio-3-(1,1,1,3,3,3-hexadeuteriopropan-2-yl)-4-(3,3,3-trifluoropropanoyl)piperazin-1-yl)-3,4-dihydro-1H-pyrano[3,4-c]pyridine-5-carbonitrile], the IC50 at IDH1 R132H was less than 500 nM; in the assay on HT1080 cells (setting [1]) it was 1000 to 10000 nM; in the assay on U87R132H (U87MG) cells (Homo sapiens, U-87 MG), 1000 to 10000 nM.
Regarding `COCCC(=O)N1CCN(c2nc(C3CC3)c3c(c2C#N)CC(C)(C)OC3)C[C@H]1C1CC1` [Compound 434, (R)-8-cyclopropyl-6-(3-cyclopropyl-4-(3-methoxypropanoyl)piperazin-1-yl)-3,3-dimethyl-3,4-dihydro-1H-pyrano[3,4-c]pyridine-5-carbonitrile], the IC50 on IDH1 R132H was less than 500 nM; with HT1080 cells (setting [1]) it was less than 500 nM; in the assay on U87R132H (U87MG) cells (Homo sapiens, U-87 MG), less than 500 nM.
